Data set [1] concerns the target T1, ENaC (Epithelial Sodium Channel) (Mus musculus, UniProt Q61180+Q9WU38+Q9WU39).
T1 construct: Mouse kidney M-1 cells were cultivated in DMEM; endogenous in cells; host or cells: mouse kidney M-1 cells (cortical collecting duct line), no transfection mentioned
T1 sequence (Q61180 1-699): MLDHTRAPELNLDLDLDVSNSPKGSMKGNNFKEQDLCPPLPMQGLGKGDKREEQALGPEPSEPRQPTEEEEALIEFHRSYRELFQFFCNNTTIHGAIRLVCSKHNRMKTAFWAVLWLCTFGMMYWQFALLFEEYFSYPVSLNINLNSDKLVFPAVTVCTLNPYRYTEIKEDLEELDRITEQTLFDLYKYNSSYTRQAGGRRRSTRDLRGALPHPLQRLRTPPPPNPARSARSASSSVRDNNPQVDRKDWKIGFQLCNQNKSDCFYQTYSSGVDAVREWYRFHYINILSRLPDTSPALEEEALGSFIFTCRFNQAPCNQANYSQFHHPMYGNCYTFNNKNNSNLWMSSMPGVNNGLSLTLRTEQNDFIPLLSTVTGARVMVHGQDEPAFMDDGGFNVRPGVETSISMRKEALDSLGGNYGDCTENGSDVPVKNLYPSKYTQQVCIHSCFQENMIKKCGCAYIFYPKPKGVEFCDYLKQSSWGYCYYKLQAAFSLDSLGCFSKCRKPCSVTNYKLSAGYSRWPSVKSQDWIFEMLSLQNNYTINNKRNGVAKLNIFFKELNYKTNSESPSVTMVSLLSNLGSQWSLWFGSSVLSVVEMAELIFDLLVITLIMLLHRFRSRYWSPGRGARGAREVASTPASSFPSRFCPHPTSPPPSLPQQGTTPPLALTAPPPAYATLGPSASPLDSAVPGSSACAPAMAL
T1 sequence (Q9WU38 1-638): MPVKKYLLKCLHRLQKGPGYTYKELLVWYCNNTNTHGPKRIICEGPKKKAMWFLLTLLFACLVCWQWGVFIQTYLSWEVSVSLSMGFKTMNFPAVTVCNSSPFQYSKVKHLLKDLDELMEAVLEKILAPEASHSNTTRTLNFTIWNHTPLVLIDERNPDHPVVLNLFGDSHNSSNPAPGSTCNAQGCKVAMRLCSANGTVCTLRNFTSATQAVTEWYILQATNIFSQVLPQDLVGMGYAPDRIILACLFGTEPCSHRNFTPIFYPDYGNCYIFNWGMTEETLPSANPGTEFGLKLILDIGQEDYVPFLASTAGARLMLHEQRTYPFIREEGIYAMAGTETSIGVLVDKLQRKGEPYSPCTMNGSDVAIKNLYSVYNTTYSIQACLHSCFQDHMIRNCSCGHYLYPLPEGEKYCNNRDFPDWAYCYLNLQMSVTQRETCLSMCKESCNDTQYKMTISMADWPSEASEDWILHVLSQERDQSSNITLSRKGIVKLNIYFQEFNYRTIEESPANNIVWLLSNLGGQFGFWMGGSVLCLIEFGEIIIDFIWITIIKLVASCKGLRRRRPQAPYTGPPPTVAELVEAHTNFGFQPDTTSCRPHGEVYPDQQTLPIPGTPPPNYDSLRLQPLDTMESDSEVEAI
T1 sequence (Q9WU39 1-655): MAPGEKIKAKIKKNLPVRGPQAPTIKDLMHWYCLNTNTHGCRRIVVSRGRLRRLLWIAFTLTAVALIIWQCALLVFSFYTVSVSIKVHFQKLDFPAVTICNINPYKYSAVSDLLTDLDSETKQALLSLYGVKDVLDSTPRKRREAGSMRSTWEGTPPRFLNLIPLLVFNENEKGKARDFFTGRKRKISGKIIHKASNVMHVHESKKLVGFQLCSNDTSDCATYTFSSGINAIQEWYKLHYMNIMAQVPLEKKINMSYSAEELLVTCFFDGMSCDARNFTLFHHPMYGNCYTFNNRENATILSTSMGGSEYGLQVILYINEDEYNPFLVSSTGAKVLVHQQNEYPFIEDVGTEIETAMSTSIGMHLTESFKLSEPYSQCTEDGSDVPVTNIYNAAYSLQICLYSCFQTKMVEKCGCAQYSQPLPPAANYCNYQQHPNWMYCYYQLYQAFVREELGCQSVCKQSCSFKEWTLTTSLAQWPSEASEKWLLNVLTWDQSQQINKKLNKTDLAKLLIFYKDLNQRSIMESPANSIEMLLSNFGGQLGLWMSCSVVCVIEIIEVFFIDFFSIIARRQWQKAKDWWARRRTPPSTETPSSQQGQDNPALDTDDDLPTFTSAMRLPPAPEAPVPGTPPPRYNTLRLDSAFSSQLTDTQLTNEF
Put plainly: Ussing Chamber assay (short circuit current, amiloride sensitive I_SC). Format: cell-based. To be noted: Mouse kidney M-1 cells, apical application, 37° C. Here is the method: The IC50 values of the example compounds given above were determined in the Ussing Chamber assay. Ussing Chamber: Mouse kidney M-1 cells were cultivated in DMEM containing 5% FCS and 5 μM dexamethasone for 10 to 12 days on polyester transwell filters. Filters were inserted into a teflon-coated well-plate which fit into the ussing chamber system. Prior to measurement the medium of M-1 cells was replaced with Caco-2 transport buffer (Invitrogen, Germany). During measurements, the Ussing chamber temperature was kept at 37° C. Short circuit currents (I_sc) were measured in the voltage-clamp mode with the software package Lab View for data acquisition and analysis. The transepithelial electrical resistance (TEER) was determined by the application of voltage steps of ±5 mV every 5 sec. Compounds were administered at a final concentration of 3 μM or at increasing concentrations (1-3-10 μM) to the apical solution. At the end of each experiment the amiloride sensitive I_SC was measured by adding 3 μM amiloride to the apical compartment. Results are expressed as inhibition in percent of the amiloride effect or as IC50.

Data set [2] can be described thus: Permeability in CALU-3 cells. Format: in vitro ADME. Conditions: human, CALU-3 monolayers, pH 7.4, 37° C., 10 μM compound; for Papp A→B at 90 min, 10 μM: apical-to-basal; for Papp B→A at 90 min, 10 μM: basal-to-apical. Here is the method: Permeability measurements across polarized, confluent CALU-3 cell monolayers grown on permeable filter supports are used to provide information on the potential of a compound to pass the lung epithelium. Apparent permeability coefficients (Papp) of the compounds across the CALU-3 cell monolayers are measured (pH 7.4, 37° C.) in apical-to-basal (AB) and basal-to-apical (BA) transport direction. […] CALU-3 cells (1-2×10^5 cells/1 cm^2 area) are seeded on filter inserts (Costar transwell polycarbonate filters, 0.4 μm pore size) and cultured (for 10-12 days DMEM) until tight monolayers are formed. Compounds of interest are dissolved in appropriate solvent (DMSO, 10 mM stock solution). Stock solutions are diluted with HTP-4 buffer (128.13 mM NaCl, 5.36 mM KCl, 1 mM MgSO4, 1.8 mM CaCl2, 4.17 mM NaHCO3, 1.19 mM Na2HPO4×7H2O, 0.41 mM NaH2PO4×H2O, 15 mM HEPES, 20 mM glucose, 0.25% BSA, pH 7.4) to prepare the transport solutions (10 μM compound, final DMSO<=0.5%). The transport solution (TL) is applied to the apical or basolateral donor side for measuring A-B or B-A permeability (3 filter replicates), respectively. The receiver side contains the same buffer as the donor side. After 30 min of accommodation, samples are collected at the start t0=0 min and at the end of the experiment tn=90 min from the donor and at 0, 30, 60, and 90 min also from the receiver chamber. Volume removed is replenished by HTP-4 buffer. The compound concentration in the samples is measured by HPLC-MS/MS or scintillation counting. The permeability coefficient (Papp) and efflux ratio are calculated according to: Papp [cm/s]=(concentration receiver [nM]*volume receiver [mL]/time interval [sec])*(1/filter area)*(1/donor concentration [nM]).

pIC50: −log10 of the molar value. Some results are limits rather than exact numbers.

The pIC50 is the negative decadic logarithm of the IC50, by convention in mol/L. Low values mean a large IC50, high ones a small IC50. The term Papp A→B denotes how fast a substance crosses the layer from the apical side. Lower therefore signals slow passage. A word on the Papp B→A: it is how fast a substance crosses the layer from the basolateral side.

Take `CCn1c(CNC(=O)c2nc(Cl)cnc2N)[n+](CC)c2ccc(OCC(=O)N(Cc3nc(C)ccc3O)C[C@H](C)O)cc21.O=C([O-])C(F)(F)F` [Example 2.05]: the pIC50 in data set [1] was 8.52. In data set [2], this compound yielded a Papp A→B at 90 min, 10 μM of 0.4 ×10⁻⁶ cm/s and a Papp B→A at 90 min, 10 μM of 0.1 ×10⁻⁶ cm/s.

Turning to `CC[n+]1c(CNC(=O)c2nc(Cl)cnc2N)n(CCO)c2cc(OCC(=O)NCc3ccc(P(C)(C)=O)cc3)ccc21.O=C([O-])C(F)(F)F` [Example 1.02], the negative logarithm of the IC50 (pIC50) in data set [1] was 8.00. In data set [2], this compound had a Papp A→B at 90 min, 10 μM of 0.6 ×10⁻⁶ cm/s and a Papp B→A at 90 min, 10 μM of 0.3 ×10⁻⁶ cm/s.

In data set [1], `CCn1c(CNC(=O)c2nc(Cl)cnc2N)[n+](CC)c2ccc(OCC(=O)NCCN(C)C)cc21.O=C[O-]` [Example 2.06] had a pIC50 of 9.00. In data set [2], the Papp A→B at 90 min, 10 μM was below 1 ×10⁻⁶ cm/s and the Papp B→A at 90 min, 10 μM turned out to be 0.2 ×10⁻⁶ cm/s.

Compound `CCn1c(CNC(=O)c2nc(Cl)cnc2N)[n+](CC)c2ccc(OCC(=O)N3CCC(N)CC3)cc21` [Example 2.03] had a pIC50 in data set [1] of 9.00.

In data set [2], `CCn1c(CNC(=O)c2nc(Cl)cnc2N)[n+](CC)c2ccc(OCC(=O)NCCCN)cc21.O=C(O)C(F)(F)F.O=C([O-])C(F)(F)F` [Example 2.01] displayed a Papp A→B at 90 min, 10 μM of 0.2 ×10⁻⁶ cm/s and a Papp B→A at 90 min, 10 μM of 0.5 ×10⁻⁶ cm/s.

Turning to `CC[n+]1c(CNC(=O)c2nc(Cl)cnc2N)n(C[C@@H]2CCCO2)c2cc(OCC(=O)N3CC[S+]([O-])CC3)ccc21.O=C([O-])C(F)(F)F` [Example 1.01], the pIC50 in data set [1] was 8.00. In data set [2], this compound came in with a Papp A→B at 90 min, 10 μM of 0.8 ×10⁻⁶ cm/s and a Papp B→A at 90 min, 10 μM of 0.3 ×10⁻⁶ cm/s.

In data set [1], `CCn1c(CNC(=O)c2nc(Cl)cnc2N)[n+](CC2CCOCC2)c2ccc(OCC(=O)N(Cc3nc(C)ccc3[O-])C[C@H](C)O)cc21.O=C(O)C(F)(F)F.O=C(O)C(F)(F)F` [Example 1.03] gave a pIC50 of 8.10. In data set [2], this compound came in with a Papp A→B at 90 min, 10 μM of 0.4 ×10⁻⁶ cm/s and a Papp B→A at 90 min, 10 μM of 0.1 ×10⁻⁶ cm/s.

Compound `CCn1c(CNC(=O)c2nc(Cl)cnc2N)[n+](CC)c2ccc(OCC(=O)NCCOCP(C)(C)=O)cc21.O=C([O-])C(F)(F)F` [Example 2.04] gave a pIC50 in data set [1] of 8.52. In data set [2], this compound had a Papp A→B at 90 min, 10 μM below 0.7 ×10⁻⁶ cm/s and an apparent permeability from basolateral to apical (Papp B→A) at 90 min, 10 μM of 0.4 ×10⁻⁶ cm/s.

In the case of `CCn1c(CNC(=O)c2nc(Cl)cnc2N)[n+](CC)c2ccc(OCC(=O)NCCNC)cc21` [Example 2.02], in data set [1], the pIC50 was 8.70.

These data come from patent US10221202B2, “Annelated phenoxyacetamides” (Boehringer Ingelheim International GmbH, priority 2015, dated 2019).
